Experimental data: US11384079B2, “6-5 fused rings as C5a inhibitors” (CHEMOCENTRYX, INC., priority 2017, dated 2022)

molecular target: T1, C5aR (Homo sapiens, UniProt P21730); assay: chemotaxis assay (C5aR mediated migration); format: cell-based; conditions: migration of U937 or neutrophil cells toward C5a (0.03 nM), 1.5 hours at 37° C., read-out: Mig IC50
T1 construct: U937 cells are a monocytic cell line which express C5aR; host or cells: U937 cells (cAMP treated) or isolated neutrophils
T1 sequence (P21730 1-350): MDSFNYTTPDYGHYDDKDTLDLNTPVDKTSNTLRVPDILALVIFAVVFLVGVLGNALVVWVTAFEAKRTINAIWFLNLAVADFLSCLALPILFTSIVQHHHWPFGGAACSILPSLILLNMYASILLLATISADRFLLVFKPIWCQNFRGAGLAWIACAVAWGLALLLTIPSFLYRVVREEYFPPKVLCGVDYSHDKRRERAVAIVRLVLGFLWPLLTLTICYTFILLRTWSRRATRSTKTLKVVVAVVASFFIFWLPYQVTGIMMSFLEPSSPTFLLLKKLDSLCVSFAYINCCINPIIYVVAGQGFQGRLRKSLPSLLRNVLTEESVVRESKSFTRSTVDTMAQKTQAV
Outline: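 Migration of cAMP-treated U937 cells (0.5 mM overnight), or of human or murine neutrophils, toward C5a was measured through 5 μm polycarbonate filters in HBSS with 1% FBS. SDF-1α served as a specificity control. After 1.5 h at 37 °C, lower-chamber cells were counted directly or by CyQuant.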

Row | IC50 | Structure (SMILES)
1 | 5 to 50 nM | Cc1cccc(C)c1-n1nc2c(c1-c1ccc(Cl)c3[nH]ccc13)CN(c1ncc(C(C)C)cc1F)CC2 [Example 1.153]
2 | 5 to 50 nM | Cc1cnc(N2CCc3nn(-c4c(C)cccc4C)c(-c4ccc(Cl)c5[nH]ccc45)c3C2)nc1 [Example 1.154]
3 | 5 to 50 nM | Cc1cccc(C)c1-n1nc2c(c1-c1ccc(Cl)c3[nH]ccc13)CN(c1ncc(Cl)cn1)CC2 [Example 1.155]
4 | < 5 nM | CCc1cccc(CC)c1-n1nc2c(c1-c1ccc(Cl)c3[nH]ccc13)CN(c1ncc(C)cn1)CC2 [Example 1.156]
5 | < 5 nM | CCc1cccc(CC)c1-n1nc2c(c1-c1ccc(Cl)c3[nH]ccc13)CN(c1ncccn1)CC2 [Example 1.157]
6 | < 5 nM | CCc1cccc(CC)c1-n1nc2c(c1-c1ccc(Cl)c3[nH]ccc13)CN(c1ncc(F)cn1)CC2 [Example 1.158]
7 | < 5 nM | CCc1cccc(CC)c1-n1nc2c(c1-c1ccc(Cl)c3[nH]ccc13)CN(c1ncc(F)cc1Cl)CC2 [Example 1.159]
8 | < 5 nM | CCc1cccc(CC)c1-n1nc2c(c1-c1ccc(Cl)c3[nH]ccc13)CN(c1ncc(Cl)cn1)CC2 [Example 1.160]
9 | < 5 nM | CCc1cccc(CC)c1-n1nc2c(c1-c1ccc(Cl)c3[nH]ccc13)CN(c1ncc(C(F)(F)F)cn1)CC2 [Example 1.161]
10 | 5 to 50 nM | CCc1cccc(CC)c1-n1nc2c(c1-c1ccc(F)c3[nH]cc(Cl)c13)CN(c1ncc(C(F)(F)F)cc1F)CC2 [Example 1.162]
11 | < 5 nM | CCc1cccc(CC)c1-n1nc2c(c1-c1ccc(Cl)c3[nH]ccc13)CN(c1ccc(C(F)(F)F)cn1)CC2 [Example 1.163]
12 | < 5 nM | CCc1cccc(CC)c1-n1nc2c(c1-c1ccc(Cl)c3[nH]ccc13)CN(c1ncc(C(C)C)cn1)CC2 [Example 1.164]
13 | 50 to 500 nM | CCc1cccc(CC)c1-n1nc2c(c1-c1ccc(C(C)(C)O)c3[nH]ccc13)CN(c1ncc(C(F)(F)F)cc1F)CC2 [Example 1.165]
14 | 50 to 500 nM | Cc1cccc(C)c1-n1nc2c(c1-c1ccc(F)c3[nH]cc(Cl)c13)CN(c1ncc(C(F)(F)F)cc1F)CC2 [Example 1.166]
15 | < 5 nM | CCc1cccc(CC)c1-n1nc2c(c1-c1ccc(Cl)c3[nH]ccc13)CN(c1ncc(C(C)C)cn1)CC2 [Example 1.167]
16 | 50 to 500 nM | CCc1cccc(CC)c1-n1nc2c(c1-c1ccc(C(N)=O)c3[nH]ccc13)CN(c1ncc(C(F)(F)F)cc1F)CC2 [Example 1.168]
17 | 5 to 50 nM | Cc1cccc(C)c1-n1nc2c(c1-c1ccc(Cl)c3[nH]ccc13)CN(c1ncc(C(F)(F)F)cc1F)CC2 [Example 1.169]
18 | < 5 nM | CCc1cccc(CC)c1-n1nc2c(c1-c1ccc(C)c3[nH]cc(Cl)c13)CN(c1ncc(C(F)(F)F)cc1F)CC2 [Example 1.170]
19 | < 5 nM | CCc1cccc(CC)c1-n1nc2c(c1-c1ccc(CO)c3[nH]ccc13)CN(c1ccc(C(F)(F)F)cn1)CC2 [Example 1.171]
20 | < 5 nM | CCc1cccc(CC)c1-n1nc2c(c1-c1ccc(C(=O)OC)c3[nH]ccc13)CN(c1ncc(C(F)(F)F)cc1F)CC2 [Example 1.172]
21 | 5 to 50 nM | CCc1cccc(CC)c1-n1nc2c(c1-c1ccc(F)c3[nH]ccc13)CN(c1cnccn1)CC2 [Example 1.173]

Row | IC50 | Structure (SMILES)
22 | < 5 nM | CCc1cccc(CC)c1-n1nc2c(c1-c1ccc(CO)c3[nH]ccc13)CN(c1ncc(C(F)(F)F)cc1F)CC2 [Example 1.174]
23 | < 5 nM | CCc1cccc(CC)c1-n1nc2c(c1-c1ccc(F)c3[nH]ccc13)CN(c1ncc(C3CC3)cc1F)CC2 [Example 1.175]
24 | < 5 nM | CCc1cccc(CC)c1-n1nc2c(c1-c1ccc(F)c3[nH]ccc13)CN(c1ncc(C3CC3)cc1Cl)CC2 [Example 1.176]
25 | < 5 nM | CCc1cccc(CC)c1-n1nc2c(c1-c1ccc(F)c3[nH]ccc13)CN(c1ncc(C)cn1)CC2 [Example 1.177]
26 | 50 to 500 nM | Cc1cccc(C)c1-n1nc2c(c1-c1ccc(F)c3[nH]ccc13)CN(c1ncc(C(F)(F)F)cc1F)CC2 [Example 1.178]
27 | < 5 nM | CCc1cccc(CC)c1-n1nc2c(c1-c1ccc(F)c3[nH]ccc13)CN(c1ncc(C(F)(F)F)cn1)CC2 [Example 1.179]
28 | < 5 nM | CCc1cccc(CC)c1-n1nc2c(c1-c1ccc(F)c3[nH]ccc13)CN(c1ncc(C(C)C)cc1F)CC2 [Example 1.180]
29 | < 5 nM | CCc1cccc(CC)c1-n1nc2c(c1-c1ccc(C)c3[nH]ccc13)CN(c1ncc(C(F)(F)F)cc1F)CC2 [Example 1.181]
30 | 5 to 50 nM | CCc1cccc(CC)c1-n1nc2c(c1-c1c(F)cc(F)c3[nH]ccc13)CN(c1ncc(C(F)(F)F)cc1F)CC2 [Example 1.182]
31 | 5 to 50 nM | CCc1cccc(CC)c1-n1nc2c(c1-c1ccc(F)c3[nH]ccc13)CN(c1ncc(C(F)(F)F)cc1Cl)CC2 [Example 1.183]
32 | < 5 nM | CCc1cccc(CC)c1-n1nc2c(c1-c1ccc(F)c3[nH]ccc13)CN(c1ncc(Cl)cn1)CC2 [Example 1.184]
33 | < 5 nM | CCc1cccc(CC)c1-n1nc2c(c1-c1ccc(Cl)c3[nH]ccc13)CN(c1ncc(C(F)(F)F)cc1F)CC2 [Example 1.185]
34 | 50 to 500 nM | Cc1cccc(OCC(C)C)c1-n1nc2c(c1-c1ccc3[nH]ccc3c1)CN(C(=O)NC(C)(C)C)CC2 [Example 1.186]
35 | < 5 nM | CCc1cccc(CC)c1-n1nc2c(c1-c1ccc(F)c3[nH]ccc13)CN(c1ncc(Cl)cc1Cl)CC2 [Example 1.187]
36 | < 5 nM | CCc1cccc(CC)c1-n1nc2c(c1-c1ccc(F)c3[nH]ccc13)CN(c1ncc(C(F)(F)F)cc1F)CC2 [Example 1.188]
37 | 50 to 500 nM | Cc1cccc(C)c1-n1nc2c(c1-c1cc(C)c3[nH]ccc3c1)CN(c1ncc(Cl)cc1Cl)CC2 [Example 1.189]
38 | > 500 nM | Cc1cccc(C)c1-n1nc2c(c1-c1ccc3[nH]cc(C#N)c3c1)CN(c1ncc(Cl)cc1Cl)CC2 [Example 1.190]
39 | 50 to 500 nM | Cc1cccc(C)c1-n1nc2c(c1-c1cc(Cl)c3[nH]ccc3c1)CN(c1ncc(Cl)cc1Cl)CC2 [Example 1.191]
40 | > 500 nM | Cc1cccc(C)c1-n1nc2c(c1-c1ccc3[nH]ncc3c1)CN(c1ncc(Cl)cc1Cl)CC2 [Example 1.192]
41 | 50 to 500 nM | Cc1cccc(C)c1-n1nc2c(c1-c1cc3cc[nH]c3cc1F)CN(c1ncc(Cl)cc1Cl)CC2 [Example 1.193]
42 | 50 to 500 nM | Cc1cccc(C)c1-n1nc2c(c1-c1cc(F)c3[nH]ccc3c1)CN(c1ncc(Cl)cc1Cl)CC2 [Example 1.194]

Row | IC50 | Structure (SMILES)
43 | 5 to 50 nM | Cc1cccc(C)c1-n1nc2c(c1-c1ccc3[nH]ccc3c1F)CN(c1ncc(Cl)cc1Cl)CC2 [Example 1.195]
44 | 5 to 50 nM | Cc1cccc(C)c1-n1nc2c(c1-c1cccc3[nH]ccc13)CN(c1ncc(Cl)cc1Cl)CC2 [Example 1.196]
45 | 5 to 50 nM | Cc1cccc(C)c1-n1nc2c(c1-c1ccc3[nH]ccc3c1)CN(c1ncc(Cl)cc1Cl)CC2 [Example 1.197]
46 | 5 to 50 nM | Cc1cccc(OCC(C)C)c1-n1nc2c(c1-c1cccc3[nH]ccc13)CN(c1ncc(C(C)C)cc1F)CC2 [Example 1.198]
47 | < 5 nM | Cc1cccc(OCC(C)C)c1-n1nc2c(c1-c1ccc3[nH]ccc3c1)CN(C(C)(C)c1ccccc1)CC2 [Example 1.199]
48 | < 5 nM | Cc1cccc(OCC(C)C)c1-n1nc2c(c1-c1ccc3[nH]ccc3c1)CN(c1ncc(Cl)cc1Cl)CC2 [Example 1.200]
49 | 5 to 50 nM | Cc1cccc(OCC(C)C)c1-n1nc2c(c1-c1cccc3[nH]ccc13)CN(c1ncc(Cl)cc1Cl)CC2 [Example 1.201]
50 | 5 to 50 nM | CCc1cccc(CC)c1-n1nc2c(c1-c1ccc3[nH]ccc3c1)CN(C(C)c1ccccc1C(F)(F)F)CC2 (centres unmarked) [Example 1.202]
51 | 5 to 50 nM | Cc1cccc(OCC(C)C)c1-n1nc2c(c1-c1ccc3[nH]ccc3c1)CN(Cc1cc(Cl)ccc1C(F)(F)F)CC2 [Example 1.203]
52 | 50 to 500 nM | Cc1cccc(OCC(C)C)c1-n1nc2c(c1-c1ccc3[nH]cc(C)c3c1)CN(c1ncc(C(F)(F)F)cc1F)CC2 [Example 1.204]
53 | 5 to 50 nM | Cc1cccc(OCC(C)C)c1-n1nc2c(c1-c1cccc3[nH]ccc13)CN(Cc1cc(Cl)ccc1C(F)(F)F)CC2 [Example 1.205]
54 | 5 to 50 nM | Cc1cccc(OCC(C)C)c1-n1nc2c(c1-c1ccc3[nH]ccc3c1)CN(C(C)CC(F)(F)F)CC2 (centres unmarked) [Example 1.206]
55 | 5 to 50 nM | CCC(CC)N1CCc2nn(-c3c(C)cccc3OCC(C)C)c(-c3ccc4[nH]ccc4c3)c2C1 [Example 1.207]
56 | 50 to 500 nM | CCc1cccc(CC)c1-n1nc2c(c1-c1ccc3[nH]ccc3c1)CN(C1CCOCC1)CC2 [Example 1.208]
57 | 5 to 50 nM | CCc1cccc(CC)c1-n1nc2c(c1-c1ccc3[nH]ccc3c1)CN(C1CCCC1)CC2 [Example 1.209]
58 | 5 to 50 nM | Cc1cccc(OCC(C)C)c1-n1nc2c(c1-c1ccc3[nH]ccc3c1)CN(c1nc(C(C)C)ns1)CC2 [Example 1.210]
59 | 5 to 50 nM | CCc1cccc(CC)c1-n1nc2c(c1-c1ccc3[nH]ccc3c1)CN(C(C)C(C)C)CC2 (centres unmarked) [Example 1.211]
60 | < 5 nM | CCc1cccc(CC)c1-n1nc2c(c1-c1ccc3[nH]ccc3c1)CN(C(CC)CC)CC2 [Example 1.212]
61 | 5 to 50 nM | C=C(C)c1nsc(N2CCc3nn(-c4c(C)cccc4OCC(C)C)c(-c4ccc5[nH]ccc5c4)c3C2)n1 [Example 1.213]
62 | 5 to 50 nM | Cc1cccc(OCC(C)C)c1-n1nc2c(c1-c1ccc3[nH]ccc3c1)CN(c1nc(Cl)ns1)CC2 [Example 1.214]
